Five compounds from patent US11413278B2, “Compounds and methods for promoting stress resistance” (priority 2015, dated 2022) can be followed below.

Where two headings read alike, the source gives them in different places.

The subject of one test is FOXO3. The experiment in a line: qPCR analysis of FOXO3-regulated genes. The conditions noted are these: for fold induction at 10 µM: Homo sapiens; for K = Sestrin induction: score. The class given is cell-based, human. An outline of the steps:
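WI-38 cells treated with compound at 10 μM for 24 h, followed by Cells-to-Ct RT-qPCR of FOXO3 target genes normalised to B2M, PPIA and GAPDH. FOXO3 or NRF2 dependence tested by prior 10 nM siRNA knockdown (36 h transfection, compound added ~24 h after replating).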
On the technique in general: Quantitative PCR measures a nucleic acid by following its amplification.

The subject of a further test is WI-38 cells. Kind of test: MMS resistance assay. Particulars: for fold induction at 10 µM: Homo sapiens, 12 h, normalized ATP measurement. In kind it is cell-based, human. An outline of the steps: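 WI-38 cells were given compounds at five final concentrations (0.25–20 μM) in triplicate, followed by cadmium or MMS for 12 h. For MMS, medium was switched from OptiMEM+10% FBS to serum-free DMEM+2% BSA when compounds were added, 24 h before stressor. Two independent assays were run, analysed by global variance t-test.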

A further test concerns C. elegans. The class given is in vivo, Caenorhabditis elegans. The conditions noted are these: in vivo. In outline: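 Worms treated in liquid with compounds in 96-well plates (4 wells each, FUdR to block progeny, 0.2% DMSO controls); H2O2 at 500 μM final added on day 4 of adulthood and viability scored daily.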
The mark [1] stands for this setting: 24 h, Assay 10(m), at 10 uM, qPCR, read-out: Induction of FOXO3-regulated genes: GADD45A normalized fold-change.
Where [2] appears, read: 24 h, Assay 10(m), at 10 uM, qPCR, read-out: Induction of FOXO3-regulated genes: TXNIP normalized fold-change.
Where [3] appears, read: 10 μM, 24 hrs, WI-38 cells, qPCR, normalized to B2M, n = 4, read-out: GADD45A expression, normalized fold change (FOXO3-regulated gene).
The mark [4] stands for this setting: 10 μM, 24 hrs, WI-38 cells, qPCR, normalized to B2M, n = 4, read-out: TXNIP expression, normalized fold change (FOXO3-regulated gene).
Where [5] appears, read: WI-38 cells, 10 μM, 24 hrs, n=4, qPCR normalized by B2M, read-out: DDB1 Normalized fold change.
Setting [6] is: WI-38 cells, 10 μM, 24 hrs, n=4, qPCR normalized by B2M, read-out: GADD45A Normalized fold change.
Setting [7] is: WI-38 cells, 10 μM, 24 hrs, n=4, qPCR normalized by B2M, read-out: SESN1 Normalized fold change.
The mark [8] stands for this setting: fold change, qPCR, WI-38 cells, 10 μM, 24 hrs, read-out: Summary of effects on FOXO3-regulated genes: GADD45A.
The mark [9] stands for this setting: fold change, qPCR, WI-38 cells, 10 μM, 24 hrs, read-out: Summary of effects on FOXO3-regulated genes: TXNIP.
The mark [10] stands for this setting: qPCR, WI-38 cells, 10 μM, n=4, 24 hrs, normalized by B2M, read-out: CAT Normalized fold change.
The mark [11] stands for this setting: qPCR, WI-38 cells, 10 μM, n=4, 24 hrs, normalized by B2M, read-out: SOD2 Normalized fold change.
[12] abbreviates: qPCR, WI-38 cells, 10 μM, n=4, 24 hrs, normalized by B2M, read-out: TXNIP Normalized fold change.
Where [13] appears, read: Exp. 1, WI-38 cells, read-out: Exp. 1, under MMS stress treatment, at 10 uM (fold change).
[14] abbreviates: Exp. 2, WI-38 cells, read-out: Exp. 2, under MMS stress treatment, at 10 uM (fold change).
The mark [15] stands for this setting: score in summary of 38 core set hits.

On to `O=C(NCc1cccnc1)/C(=C\c1ccc(Br)cc1)S(=O)(=O)c1ccccc1` [Gr-7B], for which the “E = Potential FOXO3 Activation” value with FOXO3 (2-point score) and in the test with FOXO3 (summary score) was 0 each time. For the same compound, the fold induction at 10 µM with FOXO3 (setting [1]) worked out at 2.07; in the test with FOXO3 (setting [2]) it was 0.26; in the test with FOXO3 (setting [3]), 2.07; in the test with FOXO3 (setting [4]), 0.26; with FOXO3 (setting [5]) it was 1.31; in the test on FOXO3 (setting [6]) it was 2.07. Further, the fold induction at 10 µM in the test with FOXO3 (setting [7]) amounted to 0.952; in the test with FOXO3 (setting [8]), 2.07; with FOXO3 (setting [9]), 0.26; in the test on FOXO3 (setting [10]), 1.13; with FOXO3 (setting [11]) it was 1.33; in the test on FOXO3 (setting [12]), 0.262. Also, the fold induction at 10 µM amounted to 0.39 in the test on WI-38 cells (setting [13]) and 1.45 in the test with WI-38 cells (setting [14]). In the test on FOXO3, the “K = Sestrin induction” value was found to be 0. Also, the “B = MMS resistant” value in the test with WI-38 cells (setting [15]) and in the test with WI-38 cells (summary score) was 0 throughout. The “D = Triple resistant” value in the test with WI-38 cells (summary score) is on record as 0. In addition, the “H2O2-resistance assay, 1st experiment” value in the test on C. elegans is given as “YES;”. Besides, the “L = H2O2-resistance in worms” value in the test with C. elegans was found to be 0. Moreover, the “N = H2O2-resistance in woms” value with C. elegans amounted to 0.

For `O=C(NCc1cccnc1)/C(=C/c1ccc(-c2ccc(Cl)cc2)o1)S(=O)(=O)c1ccccc1` [Gr-7C], the “SOD2 expression, normalized fold change (FOXO3-regulated gene)” value in the test with FOXO3 (10 μM, 24 hrs, WI-38 cells, qPCR, normalized to B2M, n = 4) was “SOD2 2.67, fold”. In addition, the “E = Potential FOXO3 Activation” value in the test on FOXO3 (2-point score) and in the test on FOXO3 (summary score) was 2 throughout. The “Potential FOXO3 Activation (>=2 target genes induced, by >=1.5-fold)” value in the test with FOXO3 (Assay 11(n)) is “YES”. Also, the fold induction at 10 µM is 1.43 with FOXO3 (24 h, Assay 10(m), at 10 uM, qPCR, read-out: Induction of FOXO3-regulated genes: CAT normalized fold-change); 1.36 with FOXO3 (24 h, Assay 10(m), at 10 uM, qPCR, read-out: Induction of FOXO3-regulated genes: DDB1 normalized fold-change); 10.9 in the test with FOXO3 (setting [1]); 2.67 in the test on FOXO3 (24 h, Assay 10(m), at 10 uM, qPCR, read-out: Induction of FOXO3-regulated genes: SOD2 normalized fold-change); 0.07 with FOXO3 (setting [2]); 1.43 in the test with FOXO3 (10 μM, 24 hrs, WI-38 cells, qPCR, normalized to B2M, n = 4, read-out: CAT expression, normalized fold change (FOXO3-regulated gene)). Besides, the fold induction at 10 µM in the test with FOXO3 (10 μM, 24 hrs, WI-38 cells, qPCR, normalized to B2M, n = 4, read-out: DDB1 expression, normalized fold change (FOXO3-regulated gene)) came out at 1.36; with FOXO3 (setting [3]), 10.9; in the test on FOXO3 (setting [4]) it was 0.07; in the test with FOXO3 (setting [5]) it was 1.36; with FOXO3 (setting [6]), 10.9; in the test with FOXO3 (setting [7]), 1.28. In addition, the fold induction at 10 µM in the test on FOXO3 (fold change, qPCR, WI-38 cells, 10 μM, 24 hrs, read-out: Summary of effects on FOXO3-regulated genes: CAT) came out at 1.43; in the test on FOXO3 (fold change, qPCR, WI-38 cells, 10 μM, 24 hrs, read-out: Summary of effects on FOXO3-regulated genes: DDB1), 1.36; in the test on FOXO3 (setting [8]), 10.9; in the test with FOXO3 (setting [9]), 0.07; in the test with FOXO3 (setting [10]) it was 1.43; in the test with FOXO3 (setting [11]), 2.68. Further, the values for the fold induction at 10 µM with FOXO3 (setting [12]), in the test with WI-38 cells (setting [13]) and in the test with WI-38 cells (setting [14]) were 0.068, 1.14 and 1.39, respectively. Also, the “Summary of effects on FOXO3-regulated genes: SOD2” value in the test on FOXO3 (fold change, qPCR, WI-38 cells, 10 μM, 24 hrs) was “SOD2 2.67,”. Also, the “K = Sestrin induction” value in the test with FOXO3 is on record as 0. Moreover, the “B = MMS resistant” value with WI-38 cells (setting [15]) and with WI-38 cells (summary score) was 0 each time. Also, the “D = Triple resistant” value in the test on WI-38 cells (summary score) is 0. In addition, the “L = H2O2-resistance in worms” value with C. elegans came out at 0. In addition, the “N = H2O2-resistance in woms” value in the test with C. elegans is recorded as 0.

Turning to `O=C1NCCCc2cc(Cl)sc21` [O1], the “E = Potential FOXO3 Activation” value in the test with FOXO3 (2-point score) and with FOXO3 (summary score) was 0 each time. The fold induction at 10 µM came to 1.2 in the test on FOXO3 (setting [5]); 0.853 in the test with FOXO3 (setting [6]); 1.18 in the test with FOXO3 (setting [7]); 1.25 with FOXO3 (setting [10]); 1.11 with FOXO3 (setting [11]); 1.11 in the test with FOXO3 (setting [12]). Further, the fold induction at 10 µM stood at 1.2 in the test on WI-38 cells (setting [13]) and 4.96 in the test with WI-38 cells (setting [14]). The “K = Sestrin induction” value in the test with FOXO3 is given as 0. The “B = MMS resistant” value in the test with WI-38 cells (setting [15]) and in the test on WI-38 cells (summary score) was 0 in each case. Besides, the “D = Triple resistant” value in the test with WI-38 cells (summary score) was determined as 0. For the same compound, the “L = H2O2-resistance in worms” value in the test on C. elegans turned out to be 0. For the same compound, the “N = H2O2-resistance in woms” value with C. elegans was 0.

For the compound `CC1C(=O)C(C)C(c2cc(Cl)ccc2O)NC1c1cc(Cl)ccc1O` (centres unmarked) [O6], the “E = Potential FOXO3 Activation” value in the test on FOXO3 (2-point score) and with FOXO3 (summary score) was 0 each time. Besides, the fold induction at 10 µM in the test on FOXO3 (setting [5]) was determined as 0.988; in the test on FOXO3 (setting [6]) it was 0.881; in the test with FOXO3 (setting [7]), 1.06; with FOXO3 (setting [10]) it was 0.919; in the test on FOXO3 (setting [11]), 0.932; in the test on FOXO3 (setting [12]) it was 1.01. In addition, the results for the fold induction at 10 µM in the test with WI-38 cells (setting [13]) and in the test with WI-38 cells (setting [14]) were 0.81 and 0.79, respectively. In the test on FOXO3, the “K = Sestrin induction” value was determined as 0. Also, the “B = MMS resistant” value in the test on WI-38 cells (setting [15]) and in the test on WI-38 cells (summary score) was 0 in each case. Besides, in the test on WI-38 cells (summary score), the “D = Triple resistant” value came to 0. Also, in the test with C. elegans, the “H2O2-resistance assay, 1st experiment” value was “YES;”. In the test on C. elegans, the “L = H2O2-resistance in worms” value came to 0. Besides, in the test with C. elegans, the “N = H2O2-resistance in woms” value came to 0.

With `O=C(Nc1nc(C23CC4CC(CC(C4)C2)C3)cs1)C(c1ccccc1)c1ccccc1` [O10], the “E = Potential FOXO3 Activation” value in the test on FOXO3 (2-point score) and with FOXO3 (summary score) was 0 each time. The fold induction at 10 µM in the test with FOXO3 (setting [5]) came to 0.906; in the test with FOXO3 (setting [6]), 1.19; in the test on FOXO3 (setting [7]), 0.983; in the test on FOXO3 (setting [10]) it was 0.892; in the test with FOXO3 (setting [11]) it was 0.912; in the test on FOXO3 (setting [12]) it was 0.731. The fold induction at 10 µM in the test on WI-38 cells (setting [13]) was found to be 1.08; in the test with WI-38 cells (setting [14]), 4.08. Besides, the “K = Sestrin induction” value in the test with FOXO3 stood at 0. Also, the “B = MMS resistant” value in the test with WI-38 cells (setting [15]) and with WI-38 cells (summary score) was 0 throughout. For the same compound, the “D = Triple resistant” value in the test with WI-38 cells (summary score) stood at 0. The “L = H2O2-resistance in worms” value in the test with C. elegans is 0. The “N = H2O2-resistance in woms” value in the test with C. elegans came out at 0.
